“And” between values parts separate entries of the source, which are not always exact repeats. Equal values may be shown once.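 Growth conditions: 96-well plates. Treatment: test compound, 48 hours, 5 concentrations. Analysis: linear interpolation between bracketing concentrations; unreached endpoints set to highest concentration. Abbreviation: GI50, concentration required for 50% inhibition of growth. TGI is the concentration that stops growth completely.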
How the values were obtained:
Assay in all cases: NCI tumour cell line growth inhibition, 48 h
SF-539 CNS = system: SF-539 CNS
SN12C renal = system: SN12C renal
U251 CNS = system: U251 CNS
MALME-3M melanoma = system: MALME-3M melanoma
HL-60(TB) leukemia = system: HL-60(TB) leukemia
LOX IMVI melanoma = system: LOX IMVI melanoma
COLO 205 colon = system: COLO 205 colon
MDA-N = system: MDA-N
HCT-116 colon = system: HCT-116 colon
CAKI-1 renal = system: CAKI-1 renal

Compound	TGI (SF-539 CNS)	TGI (SN12C renal)	TGI (U251 CNS)	TGI (MALME-3M melanoma)	TGI (HL-60(TB) leukemia) [µM]	TGI (LOX IMVI melanoma)	TGI (COLO 205 colon)	TGI (MDA-N)	TGI (HCT-116 colon)	TGI (CAKI-1 renal)	GI50 (SF-539 CNS)
Nc1ccc(S(=O)(=O)Nc2nccs2)cc1	> 100 µM	> 100 µM	> 100 µM	> 100 µM	> 100	> 100 µM	> 100 µM	> 100 µM	> 100 µM	–	–
C=C1CN2CC(=C)CN(C1)CS(=O)(=O)N1CC(=C)CN(CC(=C)C1)S(=O)(=O)N1CC(=C)CN(CC(=C)C1)S(=O)(=O)C2	39.9 µM	> 100 µM	> 100 µM	86.4 µM	> 100	> 100 µM	> 100 µM	> 100 µM	> 100 µM	> 100 µM	–
CC(C)NC(=O)OCCN=c1c2ccccc2ccc2ccccc12	> 100 µM	> 100 µM	> 100 µM	> 100 µM	43.9	> 100 µM	> 100 µM	> 100 µM	> 100 µM	> 100 µM	–
CN(C)c1ccc(C2SCC(=O)N2c2ccc(Oc3ccc(Cl)cc3)c(Cl)c2)cc1 (stereo not given)	40.4 µM	50 µM	53.9 µM	38.4 µM	58.7	39.5 µM	36.2 µM	58.5 µM	32.7 µM	> 100 µM	–
C=CCOc1ccc(C2C(C(=O)OCC)C(=O)CC(C)(O)C2C(=O)OCC)cc1OC (stereo not given)	> 100 µM	> 100 µM	> 100 µM	> 100 µM	> 100	> 100 µM	> 100 µM	> 100 µM	> 100 µM	> 100 µM	–
Cc1cc(NCc2ccccc2)c2ccccc2[n+]1CCCCCCCCCC[n+]1c(C)cc(NCc2ccccc2)c2ccccc21	1.13 µM	1.08 µM	0.795 µM	> 100 µM	1.19	–	0.665 µM	1.4 µM	1.45 µM	5.48 µM	–
CSc1cnc2ccccc2c1SC1CN(Cc2ccccc2)c2ccccc2C1=O (stereo not given)	> 100 µM	> 100 µM	> 100 µM	> 100 µM	> 100	> 100 µM	> 100 µM	> 100 µM	> 100 µM	> 100 µM	–
N#Cc1c(Cl)cc(Cl)n2c1nc1ccccc12	12 µM	42.1 µM	55.5 µM	7.36 µM	> 31.1	18.7 µM	21.2 µM	26.3 µM	29.8 µM	7.67 µM	–
Cc1ccc(S(=O)(=O)NC(=O)N[C@@H](Cc2cnc[nH]2)C(=O)O)cc1	> 100 µM	> 100 µM	> 100 µM	> 100 µM	> 100	> 100 µM	> 100 µM	> 100 µM	> 100 µM	–	–
CC1=NNC(=O)C1C(CC(=O)c1c[nH]c2ccccc12)C(=O)O (stereo not given)	> 100 µM	> 100 µM	> 100 µM	> 100 µM	> 100	> 100 µM	> 100 µM	> 100 µM	> 100 µM	> 100 µM	–
CC(C)(C)OC(=O)NCCCNC1(c2cc3ccccc3s2)CCCCC1	34.2 µM	30.5 µM	74.8 µM	30.9 µM	28	35.2 µM	27.8 µM	28.8 µM	24.8 µM	26.8 µM	–
C#C[C@]1(O)CC[C@H]2[C@@H]3CCC4=C/C(=N/OC(=O)c5cccc6c(=O)c7ccccc7[nH]c56)CC[C@@H]4[C@H]3CC[C@@]21C	> 100 µM	> 100 µM	> 100 µM	> 100 µM	39.8	> 100 µM	77.1 µM	> 100 µM	> 100 µM	> 100 µM	–
CN(C)CCOC1(Cc2ccc(F)cc2)CCC(C(C)(C)C)CC1 (stereo not given)	19.1 µM and 27.1 µM	25 µM and 27.5 µM	17.3 µM and 19.2 µM	7.95 µM and 10.6 µM	13.1	7.05 µM and 10.5 µM	4.7 µM and 5.66 µM	17.3 µM and 10.5 µM	15.6 µM and 15.9 µM	19.4 µM and 21 µM	5.73 µM and 13.4 µM
CCNC(=O)Nc1cccc(NC(=O)NCC)n1	> 100 µM	> 100 µM	> 100 µM	> 100 µM	> 100	–	> 100 µM	> 100 µM	> 100 µM	> 100 µM	–
COc1ccc2c(cnc3c4cc(OC)c(OC)cc4ccc23)c1	> 100 µM	> 100 µM	> 100 µM	> 100 µM	> 100	> 100 µM	> 100 µM	> 100 µM	> 100 µM	> 100 µM	–
COc1ccc2c(c1)CCN1CCc3ccccc3CC21 (stereo not given)	> 100 µM	> 100 µM	> 100 µM	> 100 µM	68	58.1 µM	46.1 µM	> 100 µM	> 100 µM	> 100 µM	–
On1c(-c2ccccc2)nc2ccccc2c1=S	> 100 µM	> 100 µM	> 100 µM	> 100 µM	> 100	> 100 µM	> 100 µM	> 100 µM	> 100 µM	> 100 µM	–
COc1nc2nccnc2c(=O)n1C	> 10 µM	> 10 µM	> 10 µM	> 10 µM	> 10	> 10 µM	> 10 µM	> 10 µM	> 10 µM	> 10 µM	–
Nc1nc(Cl)cc(NCC2(CO)CCCC2)n1	> 100 µM	> 100 µM	> 100 µM	> 100 µM	> 100	> 100 µM	> 100 µM	> 100 µM	> 100 µM	> 100 µM	–
CC12CCC(O)CC1CCC1C2CCC2(C)C(C(=O)CC(O)C(F)(F)F)CCC12 (stereo not given)	> 92.9 µM	> 100 µM	> 100 µM	> 100 µM	47.5	> 100 µM	33.1 µM	> 100 µM	> 100 µM	> 62.3 µM	–
CC(=O)[C@@]1(O)CC[C@H]2[C@@H]3C[C@H](C)C4=CC(=O)C=C[C@]4(C)[C@@]3(F)[C@@H](O)C[C@@]21C	> 100 µM	> 100 µM	> 100 µM	> 100 µM	> 100	> 100 µM	> 100 µM	> 100 µM	> 100 µM	> 100 µM	–
CC(=O)OCC1OC(n2c3c(cc(C#N)c2=S)CCCCC3)C(OC(C)=O)C(OC(C)=O)C1OC(C)=O (stereo not given)	> 100 µM	> 100 µM	> 100 µM	> 100 µM	> 100	> 100 µM	> 100 µM	> 100 µM	> 100 µM	> 100 µM	–

Compound	TGI (SF-539 CNS)	TGI (SN12C renal)	TGI (U251 CNS)	TGI (MALME-3M melanoma)	TGI (HL-60(TB) leukemia) [µM]	TGI (LOX IMVI melanoma)	TGI (COLO 205 colon)	TGI (MDA-N)	TGI (HCT-116 colon)	TGI (CAKI-1 renal)	GI50 (SF-539 CNS)
O=c1oc2ccc([N+](=O)[O-])cc2c(Nc2ccc3c(c2)Oc2ccccc2O3)c1[N+](=O)[O-]	61.1 µM	> 100 µM	38.7 µM	> 100 µM	40.2	94 µM	40.2 µM	> 100 µM	> 100 µM	> 100 µM	–
CC(=O)O[C@H]1CC[C@@]2(C)C(=CC[C@H]3[C@@H]4C[C@H](N5CCOCC5)[C@H](OC(C)=O)[C@@]4(C)CC[C@@H]32)C1	> 100 µM	> 100 µM	> 100 µM	> 100 µM	> 100	> 100 µM	> 100 µM	> 100 µM	> 100 µM	> 100 µM	–
CC(C)=CCNc1ncnc2c1ncn2CCC#N	> 100 µM	> 100 µM	> 100 µM	> 100 µM	> 100	> 100 µM	> 100 µM	> 100 µM	> 100 µM	–	–
Cc1ccc2c(c1)C(=O)C1(C2)Cc2cccc(C)c2C1=O (stereo not given)	> 100 µM	> 100 µM	> 100 µM	> 100 µM	> 100	> 100 µM	> 100 µM	> 100 µM	> 100 µM	32.4 µM	–
CCCCN=C(c1ccccc1)N1CCOCC1	> 100 µM	> 100 µM	> 100 µM	> 100 µM	> 100	> 100 µM	> 100 µM	> 100 µM	> 100 µM	> 100 µM	–
CCOC(=O)NC(Nc1ccc([N+](=O)[O-])cc1)(C(F)(F)F)C(F)(F)F	> 100 µM	> 100 µM	> 100 µM	> 100 µM	> 100	> 100 µM	> 100 µM	54.7 µM	> 100 µM	> 100 µM	–
C[N+]12CCCCC1C(CN1C(=O)Cc3c4ccccc4c(c4ccccc34)CC1=O)CCC2 (stereo not given)	> 100 µM	> 100 µM	> 100 µM	> 100 µM	> 100	> 100 µM	> 100 µM	> 100 µM	> 100 µM	> 100 µM	–
C=C1C(=O)C=C[C@]2(C)CC[C@H]3C(=C)C(=O)O[C@@H]3[C@@H]12	2.61 µM	7.49 µM	5.75 µM	5.18 µM	14.4	3.94 µM	2.24 µM	16.6 µM	0.483 µM	8.53 µM	–
Cn1c2ccccc2c(=NNc2cccc(C(=O)O)c2)c2ccccc21	46.9 µM	30.3 µM	28.7 µM	38.3 µM	33.5	17.9 µM	28.5 µM	31.3 µM	28.2 µM	73.3 µM	–
CCC/C(Cl)=N\OC(=O)Nc1ccc(OC(F)(F)F)cc1	33.3 µM	21.1 µM	> 58.1 µM	4.22 µM	> 20.6	8.78 µM	3.54 µM	28.2 µM	> 51.6 µM	3.05 µM	–
CCOC(=O)NC(Nc1cccc(C(F)(F)F)c1)(C(F)(F)F)C(F)(F)F	> 100 µM	> 100 µM	> 100 µM	> 100 µM	> 100	> 100 µM	> 100 µM	> 100 µM	> 100 µM	> 100 µM	–
CC1CCCC(CC(=O)O)(CC(=O)O)C1 (stereo not given)	> 100 µM	> 100 µM	> 100 µM	> 100 µM	> 100	> 100 µM	> 100 µM	> 100 µM	> 100 µM	> 100 µM	–
COc1ccc2cc(C(C)C(=O)N3CCOC3=O)ccc2c1 (stereo not given)	> 100 µM	> 100 µM	> 100 µM	> 100 µM	> 100	> 100 µM	> 100 µM	> 100 µM	> 100 µM	> 100 µM	–
CC(C)(C)C(=O)CC1=Nc2ccccc2SC1(O)CC(=O)C(C)(C)C (stereo not given)	61.3 µM	73.2 µM	> 100 µM	> 100 µM	80.2	49.4 µM	29.8 µM	> 100 µM	53.7 µM	56.8 µM	–
NC(CCC(=O)NC(CSCC1C(=O)Nc2ccccc21)C(=O)NCC(=O)O)C(=O)O (stereo not given)	18.3 µM	13.9 µM	18.3 µM	20 µM	47.5	2.78 µM	10.5 µM	16.7 µM	9.27 µM	9.95 µM	–
Oc1cccc(-c2nc3cc(F)ccc3s2)c1	55.8 µM	82.7 µM	76.7 µM	48.6 µM	61	34.7 µM	30 µM	61.8 µM	53.8 µM	35.2 µM	–
C=C(Cl)C(C)(Cl)CCC(Br)C(C)(C)Cl (stereo not given)	71.7 µM	31.6 µM	29.8 µM	38.4 µM	> 100	28 µM	31.8 µM	33 µM	29.5 µM	50.1 µM	–
O=C(O)/C=c1/c2ccccc2n2nc3ccccc3c12	73.5 µM	88.8 µM	> 100 µM	96.2 µM	67.1	78 µM	33.5 µM	> 100 µM	90.7 µM	> 100 µM	–
O=C1O[C@H](c2ccc3c(c2)OCO3)[C@H]2CO[C@@H](c3ccc4c(c3)OCO4)[C@@H]12	> 100 µM	> 100 µM	> 100 µM	> 100 µM	> 100	> 100 µM	> 100 µM	> 100 µM	> 100 µM	> 100 µM	–
Cn1c(COC(=O)Nc2ccccc2)c(COC(=O)Nc2ccccc2)c2ccc3cc(Cl)c(Cl)cc3c21	44.6 µM	16.4 µM	5.01 µM	6.59 µM	10.4	13.5 µM	14.5 µM	18.3 µM	38.5 µM	3.09 µM	–
O=C1/C(=C/c2ccc(Cl)cc2)CSc2ccccc21	35.7 µM	43.4 µM	24.6 µM	74.4 µM	64.6	6.21 µM	64.3 µM	61.7 µM	–	46.7 µM	–

From PubChem BioAssay (NCI)
